The record followed here is patent publication US4486432A, “Quinoxalinedione leukotriene release inhibitors” (Eli Lilly and Company, priority 1982, dated 1984).

For orientation: inhibition means how much of the control response was suppressed.

For this assay, the system named is SRS-A release. As to the kind of experiment: Inhibition of SRS-A release from sensitized guinea pig lung fragments challenged with ovalbumin (bioassay on guinea pig ileum). The note with it: Cavia porcellus, read-out: Inhibition of SRS-A Release, Percent Inhibition; for inhibition at 1 µM: Drug Concentration 1 × 10^-6 M; for inhibition at 30 µM: Drug Concentration 3 × 10^-5 M; for inhibition at 3 µM: Drug Concentration 3 × 10^-6 M; for inhibition at 10 µM: Drug Concentration 1 × 10^-5 M. It counts as cell-based. The procedure: Male, Hartley guinea pigs, usually 1-2 weeks old were sensitized with respect to ovalbumin by intraperitoneal administration of 0.15 ml. hyperimmune serum obtained from guinea pigs actively sensitized against ovalbumin. After 2 days or more, the animals were decapitated, lungs were excised and perfused through the pulmonary artery with Krebs' bicarbonate solution of the following composition in mmoles/liter: KCl, 4.6; CaCl2.2H2 O, 1.8; KH2 PO4, 1.2; MgSO4. 7H2 O, 1.2; NaCl, 118.2; NaHCO3, 24.8; and dextrose, 10.0.Poorly perfused and bloody areas were discarded. Normal lung was cut into 1 mm. cubes with a McIlwain tissue chopper, washed with Krebs' solution and divided into 400 mg. aliquots. The fragmented tissue was then incubated at 37° C. for 15 minutes in Krebs' solution containing indomethacin to optimize SRS-A release and an appropriate concentration of experimental drug. Antigen (ovalbumin) was then added to make a final concentration of 1×10^-5 g./ml. Fifteen minutes later, the incubation medium was decanted and centrifuged at 3,000×g at 4° C. for 5 minutes. The supernatant solution was collected and assayed for SRS-A using a computerized bioassay that employs the isolated guinea pig ileum (Fleisch et al., J. Pharmacol. Exp. Ther., 209, 238-243, (1979)). Release of SRS-A in the presence of an experimental drug was compared to a control sample and the results expressed as percent inhibition of SRS-A release.

Consider `O=C1C=C(Nc2ccccc2)C(=O)c2nccnc21` [Example 3, 6-anilino-5,8-quinoxalinedione], for which the inhibition at 1 µM stood at 8%, the inhibition at 30 µM was found to be 75% and the inhibition at 3 µM worked out at 22%.

In the case of `CN(C1=CC(=O)c2nccnc2C1=O)c1ccccc1` [Example 4, 6-(N-methylanilino)-5,8-quinoxalinedione], the inhibition at 10 µM is 18%, the inhibition at 1 µM worked out at 22% and the inhibition at 30 µM was 59%.

As to `O=C1C=C(Nc2ccccc2F)C(=O)c2nccnc21` [Example 5, 6-(2-fluoroanilino)-5,8-quinoxalinedione], the inhibition at 30 µM stood at 83% and the inhibition at 3 µM is 12%.

On to `O=C1C=C(Nc2cccc(Cl)c2)C(=O)c2nccnc21` [Example 6, 6-(3-chloroanilino)-5,8-quinoxalinedione], for which the inhibition at 30 µM is 71% and the inhibition at 3 µM worked out at 28%.

On to `O=C1C=C(Nc2cccc(F)c2)C(=O)c2nccnc21` [Example 7, 6-(3-fluoroanilino)-5,8-quinoxalinedione], for which the inhibition at 10 µM came out at 67%, the inhibition at 1 µM came out at 22%, the inhibition at 30 µM is 81% and the inhibition at 3 µM is 48%. For the setting “Drug Concentration 3 × 10^-7 M”, the inhibition at 0.3 µM is 6%.

For the compound `Cc1nc2c(nc1C)C(=O)C(Nc1ccccc1)=CC2=O` [Example 8, 6-anilino-2,3-dimethyl-5,8-quinoxalinedione], the inhibition at 1 µM was found to be 31% and the inhibition at 3 µM was 40%.
